Assay [1] concerns α-β-Tubulin. The assay is described as follows: α-β-Tubulin polymerization assay. The conditions noted are these: inhibition of polymerization at 20 μM and 5 μM, reported as score. Also noted: key: a compound showing 0 to 50% inhibition at 20 μM is reported as score 1; Score 2 compounds are defined as compound showing more than 50% inhibition at 20 μM and less than 50% inhibition at 5 μM; a compound showing more than 50% inhibition at 5 μM is reported as score 3. It counts as biochemical. The procedure: The tubulin polymerization assay is an adaptation of an assay originally described by Bonne, D. et al. (J. Biol. Chem., 1985, 260:2819-25). The assay kit was purchased from Cytoskeleton, Inc. (catalogue number BK011) and the assay was performed as described by the supplier with the following modifications. The assay was run in a 384-well black Proxiplate (Perkin Elmer) and volumes were adapted accordingly. The reactions were carried out in a final volume of 10 μl. Compounds were added to 25 μl of the reaction mix in 96-well PP plates (Corning) on ice and 10 μl of this mixture was dispensed into duplicates of the 384-well Proxiplates pre-warmed to 37° C. in a Fluoroskan Ascent plate reader (Thermo Scientific). Fluorescence measurements were taken every minute for one hour. The maximum slope of each well was determined (linear regression through 4 consecutive points) and polymerization was calculated as a percentage of polymerization observed in the absence of compound. Compounds were first measured at a concentration of 20 μM and then at 5 μM for those showing more than 50% inhibition at 20 μM as compared to the polymerization observed in the absence of compound. Results are reported in Table F-2 as scores defined as: a compound showing 0 to 50% inhibition at 20 μM is reported as score 1; a compound showing more than 50% inhibition at 5 μM is reported as score 3.

The subject of assay [2] is Human prostate cancer PC-3 cells. Kind of assay: Anti-proliferative effect, Alamar Blue assay, PC-3. It counts as cell-based. Also on record: key to PC3 antiproliferative activity pIC50: pIC50 = negative log of IC50 (conc. reducing growth to 50% of control). Particulars: 4-day incubation; for IC50: Homo sapiens, 96 h, read-out: PC3 antiproliferative activity pIC50 (converted). The procedure:
Human prostate cancer PC-3 cells obtained from the ATCC were cultured in HAM'S F12 medium supplemented with 1 mM Sodium Pyruvate, 1.5 g/L Sodium Bicarbonate, 50 μg/ml gentamicin, non-essential amino acids and 10% fetal calf serum.
(§1) Resazurin was purchased from Aldrich (Prod. No. 199303). Potassium ferrocyanide, potassium ferricyanide, KH2PO4 and K2HPO4 were purchased from Sigma (Prod. Nos. P9387, P8131, P5655 and P8281, respectively).
(§2) Potassium Phosphate Buffer 0.1 M (PPB) was made as follows: 2.72 gram KH2PO4 and 13.86 gram K2HPO4 were dissolved in 500 ml milli-Q H2O, the pH was adjusted to pH 7.4 and the volume was brought to 1 liter with milli-Q H2O; the buffer was filter sterilised and stored at room temperature. Resazurin stock solution (PPB-A) was prepared fresh by dissolving 45 mg resazurin in 15 ml PBS. 30 mM potassium ferricyanide (PPB-B) was prepared by dissolving 0.987 gram potassium ferricyanide in 100 ml PPB. 30 mM potassium ferrocyanide (PPB-C) was prepared by dissolving 1.266 gram potassium ferrocyanide in 100 ml PPB.
(§3) Mixture of PPB-A, PPB-B and PPB-C was prepared by mixing equal volumes of the respective solutions. Resazurin work solution (herein termed “Alamar Blue” solution) was prepared by diluting said mixture 20× (vol/vol) in PPB and filter sterilising; the Alamar Blue solution could be kept at 4° C. for a maximum of 2 weeks.
(§4) For experiments in 384 wells plates the cells were seeded at a density of 4.5×10^3 cells/ml in Falcon 384-well culture plates (Life Technologies, Merelbeke, Belgium), black with clear bottom, in 45 μl culture medium. Cells were allowed to adhere to plastic for 24 hours. The tested compound was pre-diluted (1/50 in culture medium) and 5 μl pre-diluted compound was added to the wells. Following 4-day incubation, 10 μl of the Alamar Blue solution was added to each well and the cells were further incubated for 4 hours (HCT116) or 24 hours (PC-3) at 37° C. The fluorescence intensity was measured for each well on a Fluorescence plate reader (Fluoroskan, Labsystems, 540 nm excitation and 590 nm emission)
(§5) The antiproliferative activity was calculated as percentage of remaining viable cells in treated versus control (untreated cells) conditions. Within an experiment, the result for each experimental condition is the mean of 3 replicate wells. When appropriate, the experiments were repeated to establish full concentration-response curves. When appropriate, IC50-values (concentration of the drug, needed to reduce cell growth to 50% of the control) were computed using probit analysis for graded data (Finney, D. J., Probit Analyses, 2nd Ed. Chapter 10, Graded Responses, Cambridge University Press, Cambridge 1962). Herein the effects of test compounds are expressed as pIC50 (the negative log value of the IC50-value) (see Table 3).

The subject of assay [3] is human prostate cancer PC3 cells. The assay is described as follows: Eb1 cellular assay (Eb1 Comet assay). It counts as cell-based. Particulars: 1 hour treatment, LAC = concentration where Eb1 foci absent in at least 50% of treated cells. The procedure:
The Eb1 Comet assay relies on the detection of the Eb1 protein at the plus end of polymerizing microtubules (Mimori-Kiyosue, 2000) using indirect immunofluorescence. Disruption of microtubule dynamics through de-polymerization or stabilization results in a de-localization of Eb1 from the growing microtubule ends and this is visualized by the disappearance of Eb1 containing cytoplasmic foci.
Briefly, human prostate cancer PC3 cells obtained from the American Type Culture Collection were grown in 96-well plates (Greiner, cat. no. 655090) in HAM's F12 medium as recommended by the provider (ATCC). The cells were treated for 1 hour at 37° C. with compounds dissolved in DMSO (0.6% final DMSO concentration). The culture medium was then removed by aspiration and the cells were fixed by adding cold methanol (−20° C.). After a 15 minutes incubation at −20° C., the cells were washed twice with DPBS (Gibco) containing 0.5% Triton X-100. Mouse Eb1 antibody (BD Transduction Laboratories, cat. no. 610534) was added to the cells (1/250 dilution in DPBS containing 1% BSA) and incubated overnight at room temperature. The antibody was subsequently removed and the cells washed twice with DPBS, 0.5% Triton X-100. Secondary goat anti-mouse antibody conjugated to Alexa 488 fluorescent dye (Molecular Probes) was added at a 1/500 dilution in DPBS, 1% BSA and incubated for 1 hour at 37° C. The cells were washed twice with DPBS, 0.5% Triton X-100 and then DPBS containing 0.5% Triton X-100 and 1/5000 Hoechst 33342 (Molecular Probes) was added. Microscopy based Eb1 foci visualization was carried out using an IN Cell Analyser 1000 (Amersham Biosciences) using a 20× objective. Compound dependent microtubule disruption was visually determined by the disappearance in Eb1 foci. The lowest active concentration (LAC) was determined as the concentration where Eb1 foci were absent in at least 50% of the treated cells. Herein the effects of test compounds are expressed as pLAC (the negative log value of the LAC-value) (see Table 3).

In assay [4] the test system is Human colon carcinoma HCT116 cells. Kind of assay: Anti-proliferative effect, Alamar Blue assay, HCT116. It counts as cell-based. The conditions noted are these: 4-day incubation; for IC50: Homo sapiens, HCT-116, 96 h, read-out: HCT116 antiproliferative activity pIC50 (converted). The procedure:
Human colon carcinoma HCT116 cells obtained from the ATCC were cultured in McCoy's 5A medium supplemented with 2 mM L-Glutamine, 50 μg/ml gentamicin and 10% heat inactivated fetal calf serum.
as §1, §2, §3, §4, §5
Background: Alamar Blue is a resazurin reagent that responds to reducing activity.

Each structure is given as a SMILES string.

For `CCN1Cc2cc(F)c(C(C)(C#N)Cc3nc(OC)cc(OC)n3)cc2NC1=O` (stereo not drawn) [Compound 25], the tubulin polymerization score in assay [1] was 3 (a compound showing more than 50% inhibition at 5 μM is reported as score 3). Further, the “PC3 antiproliferative activity pIC50” value in assay [2] is 6.3. The “Eb1 pLAC” value in assay [3] stood at 6.5. Further, in assay [4], the “HCT116 antiproliferative activity pIC50” value was determined as 6.3.

For the compound `CCN1Cc2ccc([C@@](C)(C#N)[C@@H]3CCc4c(Cl)ccnc43)cc2NC1=O` [Compound 14], the IC50 was 1260 nM in assay [2] and 501 nM in assay [4].

As to `CCN1Cc2ccc(C(C)(C#N)Cc3cccc(F)c3)cc2NC1=O` (stereo not drawn) [Compound 24], the “PC3 antiproliferative activity pIC50” value in assay [2] was 6.6. The “HCT116 antiproliferative activity pIC50” value in assay [4] amounted to 6.8.

For the compound `CCN1Cc2ccc(C(C)(C#N)Cc3cccc(C#N)c3)cc2NC1=O` (stereo not drawn) [Compound 17], the tubulin polymerization score in assay [1] was 3 (a compound showing more than 50% inhibition at 5 μM is reported as score 3). Further, in assay [2], the “PC3 antiproliferative activity pIC50” value turned out to be 6.6. Also, the “HCT116 antiproliferative activity pIC50” value in assay [4] is on record as 6.8.

As for `CN1Cc2ccc([C@@](C)(C#N)Cc3cccc(C#N)c3)cc2NC1=O` [Compound 27], the tubulin polymerization score in assay [1] is given as 3 (a compound showing more than 50% inhibition at 5 μM is reported as score 3). Further, in assay [2], the “PC3 antiproliferative activity pIC50” value stood at 6.8. Besides, in assay [3], the “Eb1 pLAC” value was determined as 6.5. In addition, the “HCT116 antiproliferative activity pIC50” value in assay [4] is on record as 7.1.

`CCN1Cc2ccc(C(C)(C#N)Cc3nc4ccccc4s3)cc2NC1=O` (stereo not drawn) [Compound 23]: the “PC3 antiproliferative activity pIC50” value in assay [2] is 6.3. The “HCT116 antiproliferative activity pIC50” value in assay [4] came out at 6.4.

Regarding `CCN1Cc2ccc(C(C)(C#N)CNCc3ccc(C#N)cc3)cc2NC1=O` (stereo not drawn) [Compound 12], the results for the IC50 in assay [2] and in assay [4] were 1260 nM and 631 nM, respectively.

`CCN1Cc2ccc(C(C)(C#N)Cc3cc(Cl)cc(Cl)c3)cc2NC1=O` (stereo not drawn) [Compound 20]: the “PC3 antiproliferative activity pIC50” value in assay [2] is recorded as 6.2. The “Eb1 pLAC” value in assay [3] is given as 6.5. For the same compound, the “HCT116 antiproliferative activity pIC50” value in assay [4] was determined as 6.4.

Consider `CN1Cc2ccc(C(C)(C#N)Cc3cccc(C#N)c3)cc2NC1=O` (stereo not drawn) [Compound 28], for which, in assay [1], the tubulin polymerization score was 3 (a compound showing more than 50% inhibition at 5 μM is reported as score 3). In assay [2], the “PC3 antiproliferative activity pIC50” value was found to be 6.5. Moreover, the “Eb1 pLAC” value in assay [3] amounted to 6.5. Further, the “HCT116 antiproliferative activity pIC50” value in assay [4] is 6.8.

For `CCN1Cc2ccc(C(C#N)(CC)Cc3cccc(C#N)c3)cc2NC1=O` (stereo not drawn) [Compound 2], in assay [1], the tubulin polymerization score is given as 3 (a compound showing more than 50% inhibition at 5 μM is reported as score 3). Moreover, the IC50 in assay [2] and in assay [4] was 316 nM in each case. Also, the “Eb1 pLAC” value in assay [3] is reported as 7.

As to `CCN1Cc2ccc(C(C)(C#N)Cc3nc(OC)cc(OC)n3)cc2NC1=O` (stereo not drawn) [Compound 18], in assay [1], the tubulin polymerization score is reported as 3 (a compound showing more than 50% inhibition at 5 μM is reported as score 3). For the same compound, in assay [2], the “PC3 antiproliferative activity pIC50” value came out at 6.6. Moreover, the “HCT116 antiproliferative activity pIC50” value in assay [4] is on record as 6.6.

For `CCN1Cc2ccc(C(C)(C#N)Cc3ccccc3)cc2NC1=O` (stereo not drawn) [Compound 16], the tubulin polymerization score in assay [1] amounted to 2. For the same compound, the “PC3 antiproliferative activity pIC50” value in assay [2] was found to be 5.9. In addition, in assay [3], the “Eb1 pLAC” value turned out to be 6. In assay [4], the “HCT116 antiproliferative activity pIC50” value is 6.2.

As for `CCN1Cc2ccc(C(C)(C#N)Cc3cccc(C)c3)cc2NC1=O` (stereo not drawn) [Compound 22], the “PC3 antiproliferative activity pIC50” value in assay [2] worked out at 6.4. For the same compound, the “HCT116 antiproliferative activity pIC50” value in assay [4] came to 6.7.

As to `CCN1Cc2ccc(C(C)(C#N)CCOc3ccc(C#N)cc3)cc2NC1=O` (stereo not drawn) [Compound 15], the IC50 is 200 nM in assay [2] and 100 nM in assay [4].

As to `CCN1Cc2ccc(C(C)(C#N)Cc3cccc(C#CCOC)c3)cc2NC1=O` (stereo not drawn) [Compound 36], the tubulin polymerization score in assay [1] is listed as 3 (a compound showing more than 50% inhibition at 5 μM is reported as score 3). In addition, the “PC3 antiproliferative activity pIC50” value in assay [2] was 6.6. For the same compound, the “Eb1 pLAC” value in assay [3] turned out to be 7. Besides, the “HCT116 antiproliferative activity pIC50” value in assay [4] turned out to be 6.7.

The record behind these values is US8168644B2, “Quinazolinone derivatives as tubulin polymerization inhibitors” (Janssen Pharmaceutica NV, priority 2008, dated 2012).
